Seven molecules from PMC9645344, “Serotonin-releasing agents with reduced off-target effects” (Molecular Psychiatry, 2022) can be followed below.

In general, IC50 refers to the concentration that gives 50% inhibition. A low value points to greater potency in that assay.

Counter-ions that a name gives are not always drawn.

The target of one experiment is T1, human DAT (Homo sapiens, UniProt Q01959).
T1 construct: expressed in transfected cells
The experiment in a line: DAT uptake inhibition assay in HEK293 cells ([3H]MPP+). It counts as cell-based. The following applies: for DAT/SERT ratio: (1/DAT IC50)/(1/SERT IC50), higher values indicate higher DAT-selectivity. The procedure: (§1) Human embryonic kidney 293 (HEK293) cells stably expressing the human isoforms of either DAT or SERT were maintained in Dulbecco’s Modified Eagle Medium (DMEM), supplemented with 10% fetal calf serum at a subconfluent state in humidified atmosphere (5% CO2, 37 °C).
(§2) Uptake inhibition assays were performed as described earlier. Briefly, HEK293 cells stably expressing human SERT or DAT were seeded onto poly- D-lysine (PDL) coated 96-well plates (40,000 cells well^−1) the day before an experiment. Prior to the uptake inhibition assay, DMEM was replaced with Krebs-HEPES buffer (KHB, 25 mM HEPES, 120 mM NaCl, 5 mM KCl, 1.2 mM CaCl2, 1.2 mM MgSO4, and 5 mM D-glucose, pH 7.3) and the cells were preincubated with test drugs for 5 min at room temperature. Uptake assays were initiated by adding 20 nM [^3H]MPP^+ to DAT cells or 100 nM [^3H]5-HT to SERT cells. After 180 s (DAT) or 60 s (SERT), the tritiated substrate was removed by aspiration. Cells were washed once with ice-cold KHB, then lysed in 1% sodium dodecyl sulfate (SDS) and subjected to liquid scintillation counting to quantify tritium accumulated in each sample. Non-specific uptake was determined in the presence of mazindol (1 µM) for DAT or paroxetine (1 µM) for SERT and subtracted throughout.

The target in experiment [1] is T2, human SERT (Homo sapiens, UniProt P31645).
T2 construct: expressed in transfected cells
T2 sequence (P31645 whole entry): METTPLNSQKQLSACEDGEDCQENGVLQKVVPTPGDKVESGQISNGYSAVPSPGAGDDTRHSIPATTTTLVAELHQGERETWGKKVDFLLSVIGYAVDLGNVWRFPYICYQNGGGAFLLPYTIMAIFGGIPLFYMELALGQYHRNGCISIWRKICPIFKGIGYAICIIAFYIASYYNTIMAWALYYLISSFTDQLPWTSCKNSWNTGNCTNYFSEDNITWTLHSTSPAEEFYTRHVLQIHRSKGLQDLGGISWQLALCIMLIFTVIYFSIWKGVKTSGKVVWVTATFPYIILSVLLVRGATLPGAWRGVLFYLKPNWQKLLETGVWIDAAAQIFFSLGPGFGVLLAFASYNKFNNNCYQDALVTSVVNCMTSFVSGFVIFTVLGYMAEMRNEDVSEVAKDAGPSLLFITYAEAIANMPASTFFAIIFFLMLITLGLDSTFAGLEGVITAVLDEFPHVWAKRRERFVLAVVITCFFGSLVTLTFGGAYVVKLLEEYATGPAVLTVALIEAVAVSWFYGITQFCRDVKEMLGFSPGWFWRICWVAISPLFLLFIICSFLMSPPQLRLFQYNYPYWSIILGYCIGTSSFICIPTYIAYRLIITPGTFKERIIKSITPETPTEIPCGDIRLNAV
The experiment in a line: SERT uptake inhibition assay in HEK293 cells ([3H]5-HT). It counts as cell-based. On the procedure:
as §1, §2

Experiment [2] has as its target T2, human SERT. The experiment in a line: [3H]5-HT release assay in HEK293 cells (superfusion). It counts as cell-based. The following applies: 10 µM, SERT-expressing HEK293 cells. The procedure:
HEK293 cells stably expressing SERT were seeded onto PDL-coated glass coverslips (5 mm diameter) that were placed into 96-well plates at a density of 40,000 cells per well the day before the experiment. Cells were preloaded with [^3H]5-HT (0.4 µM, 20 min at 37 °C). Subsequently, the cells were transferred into small chambers with a total volume of 200 µl and superfused with KHB at a flow rate of 0.7 ml per min for 40 min to establish a stable baseline before the collection of 2-min fractions was initiated. For each experiment, three basal fractions were collected before the cells were exposed to various concentrations (given in the figure legends) of the test drugs for five fractions. Subsequently, the cells were superfused with 1% SDS for three final fractions that served to determine the total amount of radioactivity present within the cells at the end of each experimental run. The amount of tritium within each fraction was determined by liquid scintillation counting, and release was expressed as percentage of radioactivity released in relation to the total radioactivity present at the beginning of that fraction. Observations from superfusion experiments were excluded in case of premature exposure to SDS.

For another experiment, the system named is VMATs. The experiment in a line: VMAT uptake inhibition assay in PC12 cells. The following applies: all at 30 µM, relative to inhibition by 30 µM reserpine. It counts as cell-based. On the procedure:
VMAT uptake inhibition assays were conducted as previously described, with some modifications. In brief, […] PC12 cells per well were seeded in 24-well plates the day before experimentation. The cells were pretreated with 100 nM nisoxetine and mazindol to inhibit non-specific binding. PC12 cells were then preincubated with 200 µM digitonin to permeabilize membranes and were kept at room temperature on a plate shaker at low velocity for 30 min. Cells were treated with test drugs and shaken for another 10 min. Tritiated substrate (0.05 µM [^3H]5-HT) was added, and the cells incubated on the plate shaker for 30 min. To terminate uptake, cells were transferred into 1.5 ml Eppendorf tubes, centrifuged at 5000 rpm for 5 min. The supernatant was aspirated, cells were washed with cold KHB, recentrifuged and lysed with 200 µl SDS. The solutions were transferred into vials containing 2 ml scintillation cocktail and radioactivity was determined via beta-scintillation counting (Perkin Elmer, Waltham, MA, USA). For analysis, inhibitory potency of test drugs was normalized to uptake inhibition caused by the potent VMAT inhibitor reserpine.

Experiment [3] relates to C57BL/6N mice. The experiment in a line: Forced-swim test (FST). The following applies: for immobility time in the FST versus vehicle: mice. Format: in vivo. On the procedure: (§3) All in vivo experiments were performed in adult mice (>6 weeks old). For the photometry and microdialysis experiments, which were carried out in Florida, male C57BL/6J mice from The Jackson Laboratory (Bar Harbor, ME, USA) were group-housed in polycarbonate cages (GM500, Tecniplast, Buguggiate, Italy) with lights on from 7 a.m. to 7 p.m. Food and water were provided ad libitum. Photometry and microdialysis experiments were performed in accordance with a protocol approved by the Institutional Animal Care and Use Committee at Florida Atlantic University. For the behavioral experiments, which were carried out in Vienna, C57BL/6N mice from Charles River (Sulzfeld, Germany) were group-housed in polycarbonate cages with lights on from 7 a.m. to 7 p.m. Food and water were provided ad libitum. Behavioral experiments were performed in accordance with a protocol approved by the Austrian national ethical committee on animal care and use (Bundesministerium für Wissenschaft und Forschung: BMWFW-66.009/0016-WF/V/3b/2015). All animal procedures were conducted in agreement with the ARRIVE guidelines and the U.K. Animal (Scientific Procedures) Act, 1986, and associated guidelines, EU Directive 2010/63/EU for animal experiments. Mice were given at least 1 week to acclimate before being used in any experiments.
(§4) For behavioral assays, animals were assigned to treatment groups and injected with test drugs by an unblinded observer.
The FST was performed as previously described. In brief, mice were placed for 6 min in a beaker (diameter: 19 cm, height: 23 cm), halfway filled with water (22–23 °C), and the immobility time was quantified using the software Videotrack (Viewpoint, Champagne au Mont d’Or, France). Immobility was defined as the absence of any movement, except for those required to keep the head above the water. The time spent immobile during the final 4 min of the test was used as a measure of behavioral despair. Animal sample size was confirmed using a post hoc analysis of the achieved power using G*Power3.1 [29]. Using a significance level (α) of 0.05 and an effect size f = 2.5 and a sample size of 6 animals/group we achieved the commonly accepted statistical power (1−β) of 0.8.

The subject of experiment [4] is C57BL/6N mice. The experiment in a line: Open-field test. It counts as in vivo. The conditions noted are these: for horizontal locomotor activity (total distance traveled) in the open field test: 1 h. The procedure:
as §3, §4
Mice were placed into an open field arena (27.3 × 27.3 × 27.3 cm) surrounded by infrared beams to track movements. The total distance traveled over 1 h was recorded using Activity Monitor (Med Associates Inc., St. Albans, VT, USA) and interpreted as a measure of the psychostimulant effects. Animal sample size was confirmed using a post hoc analysis of the achieved power using G*Power3.1 [29]. Using a significance level (α) of 0.05 and an effect size f = 1.92 and a sample size of 7.5 animals (5–10)/group we achieved the commonly accepted statistical power (1−β) of 0.8.

For experiment [5], the system named is extracellular 5-HT in the NAc. The experiment in a line: Fiber photometry with GRAB5-HT sensor in the NAc of freely moving mice. The conditions noted are these: for extracellular 5-HT in the NAc (GRAB5-HT fluorescence): 10 mg kg-1 intraperitoneal. It counts as in vivo. On the procedure:
as §3
Mice were anesthetized with isoflurane (5% induction, 2% maintenance) and placed into a stereotaxic frame (Kopf Instruments, Tujunga, CA, USA) oriented in the flat skull position. Ophthalmic ointment was applied to prevent drying of the eyes. Ketoprofen (10 mg kg^−1) was administered subcutaneously (s.c.), whereas bupivacaine and lidocaine were administered locally (s.c.; 100 µl of sterile saline containing 0.05% bupivacaine and 0.2% lidocaine) to the surgical site atop the head. A midline incision was made through the skin on the dorsal surface of the head to expose the skull. Fascia was removed, coordinates for the NAc were determined relative to bregma: anterior/posterior = 1.54 mm; medial/lateral = 0.7 mm; dorsal/ventral = −4.1 mm. A 1 mm burr hole was drilled through the skull. […] For the mice used for fiber photometry, 4*10^12 genome copies of AAV9-hSyn-5-HT2h or 10^10 genome copies of AAV-hSyn-DA2m were delivered into the NAc at an infusion rate of 100 nl min^−1 (total volume of 1 µl) using a 34-gauge needle attached to a 10 µl Nanofil microsyringe (Hamilton, Reno, NV, USA), as previously described. Following injection of the virus, an optical fiber was lowered through the burr hole and secured with glass ionomer cement. Three 1.6 mm screws (00-96X1/16 39052, Plastics One Inc., Roanoke, VA, USA) were affixed to the skull to support a cement stage that was created to secure the implanted guide cannulae or optical fiber. Mice were singly housed following surgery and allowed 6 days of recovery for the microdialysis experiments or 21 days for the photometry experiments. Food and water were available ad libitum.
To monitor light emitted from the G-protein coupled receptor-activation-based 5-HT (GRAB5-HT) and DA (GRABDA) sensors, fiber photometry was performed as described. Briefly, a light emitting diode (465 nm) (CLED_465, Doric Lenses, Quebec, QC, Canada), reflected through a dichroic mirror, was coupled to an optical fiber (200 µm core/225 cladding diameter; Thorlabs, Newton, NJ, USA) that was glued to a metal ferrule (Doric Lenses, Quebec, QC, Canada) and implanted into the NAc as described above. Emitted, band-pass filtered light (500–550 nm, FMC6, Doric Lenses, Quebec,QC, Canada) was detected with a photodetector (Newport Femtowatt silicone PIN; New Focus, San Jose, CA, USA). Data were recorded using a RZ5P lock-in amplifier (Tucker-Davis Technologies, Alachua, FL, USA) controlled with Synapse software. Sinusoidal excitation was delivered at 210 Hz by an LED driver Doric Lenses, LEDD_4) at low power mode. A demodulated signal was low-pass filtered at 6 Hz and digitized at 1017 Hz. […]

Where [6] appears, read: indicated doses (1, 5 and 10 mg kg-1) intraperitoneal.

T1 sequence (Q01959 whole entry): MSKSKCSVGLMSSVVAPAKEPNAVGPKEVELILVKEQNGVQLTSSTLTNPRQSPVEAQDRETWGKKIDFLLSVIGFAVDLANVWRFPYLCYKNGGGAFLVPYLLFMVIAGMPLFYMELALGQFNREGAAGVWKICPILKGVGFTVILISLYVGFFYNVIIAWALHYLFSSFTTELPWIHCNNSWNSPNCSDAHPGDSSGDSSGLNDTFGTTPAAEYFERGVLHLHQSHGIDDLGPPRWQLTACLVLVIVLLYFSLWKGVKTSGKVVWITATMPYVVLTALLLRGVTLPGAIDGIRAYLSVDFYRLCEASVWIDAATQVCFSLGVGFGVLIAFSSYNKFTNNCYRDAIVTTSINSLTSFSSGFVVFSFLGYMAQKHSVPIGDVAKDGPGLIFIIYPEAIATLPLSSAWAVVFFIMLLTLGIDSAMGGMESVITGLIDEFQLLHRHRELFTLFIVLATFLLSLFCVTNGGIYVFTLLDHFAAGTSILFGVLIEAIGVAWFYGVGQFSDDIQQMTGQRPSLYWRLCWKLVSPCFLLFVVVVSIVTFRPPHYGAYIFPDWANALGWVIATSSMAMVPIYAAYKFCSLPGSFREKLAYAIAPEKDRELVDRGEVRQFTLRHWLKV

Regarding `CN[C@@H](C)C(=O)c1ccccc1` [S-MC, N-methylcathinone], on human DAT, the IC50 turned out to be 9.1 µM and the DAT/SERT ratio is 43.2. This molecule came in with an IC50 against human SERT [1] of 393 µM. Besides, the “effect on release of preloaded [3H]5-HT” value on human SERT [2] is given as “little effect”.
The like results for `CN[C@H](C)C(=O)c1ccccc1` [R-MC, N-methylcathinone] were, in that order, 10.6 µM, 90.7, 964 µM and “did not alter basal release of 5-HT”.
With `CN[C@@H](C)C(=O)c1ccc(C)cc1` [S-4-MMC, 4-methyl-N-methylcathinone], on human DAT, the IC50 came out at 10.3 µM and the DAT/SERT ratio is given as 1.06. Besides, the IC50 against human SERT [1] came to 10.9 µM. Further, the “effect on release of preloaded [3H]5-HT” value on human SERT [2] is reported as “robustly increased”. Moreover, the “inhibition of VMAT-mediated transport compared to MDMA” value in the experiment on VMATs is “no difference”. Further, in the experiment on C57BL/6N mice [3] (5 mg kg-1 intraperitoneal, male and female mice), the “time spent immobile in the FST, male and female mice” value is “significantly reduced the time spent immobile regardless of sex”. In the experiment with C57BL/6N mice [3] (5 mg kg-1 intraperitoneal), the “immobility time in the FST versus vehicle” value is given as “significantly reduced immobility time versus vehicle”. Also, the “immobility time in the FST versus vehicle” value in the experiment with C57BL/6N mice [3] (10 mg kg-1 intraperitoneal) was “significantly reduced immobility time versus vehicle”. Besides, in the experiment with C57BL/6N mice [4] (setting [6]), the “vertical counts in the open field test” value is given as “affected vertical counts” and the “horizontal locomotor activity (total distance traveled) in the open field test” value is listed as “did not differ from vehicle”.
For `CCN[C@@H](C)Cc1cccc(C(F)(F)F)c1` [D-FEN, d-fenfluramine, reference compound], in experiment [5], the “extracellular 5-HT in the NAc (GRAB5-HT fluorescence)” value (“extracellular 5-HT in the NAc” below) is listed as “increased 5-HT when compared to saline”. The “GRAB5-HT basal fluorescence in the NAc” value in experiment [5] (3 and 10 mg kg-1 intraperitoneal) is “increased the basal fluorescence in a dose-dependent manner”. In experiment [5] (t = 700-900 s post injection, drug alone, D-FEN 10, S-4-MC 5, S-4-TFMMC 10 mg kg-1 intraperitoneal), the “relative GRAB5-HT fluorescence at peak versus saline” value is “Significant effects”.
In the case of `CN[C@H](C)C(=O)c1ccc(C)cc1` [R-4-MMC, 4-methyl-N-methylcathinone], at human DAT, half-maximal inhibition (IC50) was put at 12.5 µM and the DAT/SERT ratio was determined as 6.2. This molecule also displayed an IC50 on human SERT [1] of 77.1 µM. Moreover, the “effect on release of preloaded [3H]5-HT” value on human SERT [2] is on record as “did not alter basal release of 5-HT”. Also, the “immobility time in the FST versus vehicle” value with C57BL/6N mice [3] (10 mg kg-1 intraperitoneal) is on record as “significantly reduced immobility time”. The “horizontal locomotor activity (total distance traveled) in the open field test” value in the experiment with C57BL/6N mice [4] (10 mg kg-1 intraperitoneal) is listed as “significantly affected horizontal locomotor activity”.
With `CNCCC(Oc1ccc(C(F)(F)F)cc1)c1ccccc1` (stereo not drawn) [fluoxetine, Fluoxetine hydrochloride, reference compound], the “extracellular 5-HT in the NAc” value in experiment [5] is “without effect”.
On to `CN[C@H](C)C(=O)c1ccc(C(F)(F)F)cc1` [R-4-TFMMC, 4-trifluoromethyl-N-methylcathinone], for which the IC50 was 153 µM on human DAT and 22.6 µM at human SERT [1]. Besides, the DAT/SERT ratio at human DAT came to 0.15. The “effect on release of preloaded [3H]5-HT” value at human SERT [2] is given as “did not alter basal release of 5-HT”. Also, the “immobility time in the FST versus vehicle” value in the experiment with C57BL/6N mice [3] (1 mg kg-1 intraperitoneal), with C57BL/6N mice [3] (5 mg kg-1 intraperitoneal) and in the experiment with C57BL/6N mice [3] (10 mg kg-1 intraperitoneal) was “had no effect” in each case. For the same molecule, the “extracellular 5-HT in the NAc” value in experiment [5] is “no effect on 5-HT was observed”.
